Positions of bridges follow the written chain, without caps; N, C: chain ends. Non-standard residues stand in square brackets, D forms with d. Residues, ends and D or L forms follow the SMILES beside them. Phe(3,4-(OMe)2) = COc1ccc(C[C@H](N)C(=O)O)cc1OC; Phe(3,4-Cl2) = N[C@@H](Cc1ccc(Cl)c(Cl)c1)C(=O)O; Phe(4-CF3) = N[C@@H](Cc1ccc(C(F)(F)F)cc1)C(=O)O; Phe(4-tBu) = CC(C)(C)c1ccc(C[C@H](N)C(=O)O)cc1; Bpa = N[C@@H](Cc1ccc(C(=O)c2ccccc2)cc1)C(=O)O; Phe(4-F) = N[C@@H](Cc1ccc(F)cc1)C(=O)O; Phe(4-I) = N[C@@H](Cc1ccc(I)cc1)C(=O)O; Phe(4-Me) = Cc1ccc(C[C@H](N)C(=O)O)cc1
Legend:
Test in all cases: cell-based
hNav1.3 = hNav1.3 (Homo sapiens, UniProt Q9NY46); conditions: IonWorks Quattro, use-dependent protocol, hNav1.3; read-out: IWQ Use Nav1.3
hNav1.5 = hNav1.5 (Homo sapiens, UniProt Q14524); conditions: IonWorks Quattro, use-dependent protocol, hNav1.5; read-out: IWQ Use Nav1.5
hNav1.5, sequence (Q14524 whole entry, looked up): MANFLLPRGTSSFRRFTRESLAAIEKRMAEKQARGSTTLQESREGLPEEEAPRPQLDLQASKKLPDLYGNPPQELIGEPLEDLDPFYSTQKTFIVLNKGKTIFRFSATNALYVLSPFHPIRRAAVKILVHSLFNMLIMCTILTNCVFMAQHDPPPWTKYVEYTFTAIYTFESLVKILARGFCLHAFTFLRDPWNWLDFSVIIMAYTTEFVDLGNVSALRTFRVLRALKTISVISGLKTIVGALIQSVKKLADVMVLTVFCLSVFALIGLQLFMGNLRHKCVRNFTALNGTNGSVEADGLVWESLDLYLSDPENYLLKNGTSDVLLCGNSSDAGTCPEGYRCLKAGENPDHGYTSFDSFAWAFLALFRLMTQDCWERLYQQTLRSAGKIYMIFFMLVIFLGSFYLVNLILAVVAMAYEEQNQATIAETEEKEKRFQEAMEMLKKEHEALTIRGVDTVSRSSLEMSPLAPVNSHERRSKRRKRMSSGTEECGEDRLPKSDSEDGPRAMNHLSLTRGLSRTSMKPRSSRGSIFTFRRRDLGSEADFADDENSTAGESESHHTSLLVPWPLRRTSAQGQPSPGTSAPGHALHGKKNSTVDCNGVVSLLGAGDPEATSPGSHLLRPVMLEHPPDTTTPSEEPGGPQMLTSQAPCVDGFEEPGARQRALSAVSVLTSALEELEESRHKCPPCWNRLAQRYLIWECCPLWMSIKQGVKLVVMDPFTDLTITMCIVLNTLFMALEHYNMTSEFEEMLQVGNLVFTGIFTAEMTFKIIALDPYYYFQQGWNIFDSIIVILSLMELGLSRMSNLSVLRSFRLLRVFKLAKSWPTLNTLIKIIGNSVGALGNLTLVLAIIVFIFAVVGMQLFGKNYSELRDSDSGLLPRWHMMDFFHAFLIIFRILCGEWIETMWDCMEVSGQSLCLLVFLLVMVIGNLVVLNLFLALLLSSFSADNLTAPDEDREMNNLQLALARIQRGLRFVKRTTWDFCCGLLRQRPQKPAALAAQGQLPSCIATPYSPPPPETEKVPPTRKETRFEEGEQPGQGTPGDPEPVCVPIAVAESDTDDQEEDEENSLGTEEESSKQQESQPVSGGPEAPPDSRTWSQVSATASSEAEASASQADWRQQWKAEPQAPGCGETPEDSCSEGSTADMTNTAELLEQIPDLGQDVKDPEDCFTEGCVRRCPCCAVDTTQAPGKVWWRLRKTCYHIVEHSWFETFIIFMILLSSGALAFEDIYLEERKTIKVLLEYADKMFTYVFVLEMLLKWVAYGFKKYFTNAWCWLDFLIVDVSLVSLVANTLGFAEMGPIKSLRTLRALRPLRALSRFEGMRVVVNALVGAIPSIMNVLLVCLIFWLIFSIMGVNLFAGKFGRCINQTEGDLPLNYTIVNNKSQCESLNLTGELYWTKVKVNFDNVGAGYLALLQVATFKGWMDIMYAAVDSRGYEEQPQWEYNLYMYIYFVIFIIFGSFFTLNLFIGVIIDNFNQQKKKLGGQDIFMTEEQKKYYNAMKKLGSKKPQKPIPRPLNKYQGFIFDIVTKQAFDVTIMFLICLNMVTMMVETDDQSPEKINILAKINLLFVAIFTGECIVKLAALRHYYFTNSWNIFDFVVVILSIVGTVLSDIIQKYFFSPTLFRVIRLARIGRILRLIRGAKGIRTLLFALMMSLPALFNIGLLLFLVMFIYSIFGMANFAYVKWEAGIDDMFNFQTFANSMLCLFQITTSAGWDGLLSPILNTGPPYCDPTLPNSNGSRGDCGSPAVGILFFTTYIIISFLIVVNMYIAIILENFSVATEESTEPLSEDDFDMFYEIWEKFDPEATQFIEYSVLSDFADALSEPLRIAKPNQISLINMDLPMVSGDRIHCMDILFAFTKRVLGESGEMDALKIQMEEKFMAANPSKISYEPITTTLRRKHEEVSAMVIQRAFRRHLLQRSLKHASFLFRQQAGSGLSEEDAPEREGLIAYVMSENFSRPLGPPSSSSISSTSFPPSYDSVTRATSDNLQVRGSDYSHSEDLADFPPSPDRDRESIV

hNav1.7 = hNav1.7 (Homo sapiens, UniProt Q15858); type: cell-based; conditions: IonWorks Quattro, use-dependent protocol, hNav1.7; read-out: IWQ Use Nav1.7
hNav1.7, sequence (Q15858 whole entry, looked up): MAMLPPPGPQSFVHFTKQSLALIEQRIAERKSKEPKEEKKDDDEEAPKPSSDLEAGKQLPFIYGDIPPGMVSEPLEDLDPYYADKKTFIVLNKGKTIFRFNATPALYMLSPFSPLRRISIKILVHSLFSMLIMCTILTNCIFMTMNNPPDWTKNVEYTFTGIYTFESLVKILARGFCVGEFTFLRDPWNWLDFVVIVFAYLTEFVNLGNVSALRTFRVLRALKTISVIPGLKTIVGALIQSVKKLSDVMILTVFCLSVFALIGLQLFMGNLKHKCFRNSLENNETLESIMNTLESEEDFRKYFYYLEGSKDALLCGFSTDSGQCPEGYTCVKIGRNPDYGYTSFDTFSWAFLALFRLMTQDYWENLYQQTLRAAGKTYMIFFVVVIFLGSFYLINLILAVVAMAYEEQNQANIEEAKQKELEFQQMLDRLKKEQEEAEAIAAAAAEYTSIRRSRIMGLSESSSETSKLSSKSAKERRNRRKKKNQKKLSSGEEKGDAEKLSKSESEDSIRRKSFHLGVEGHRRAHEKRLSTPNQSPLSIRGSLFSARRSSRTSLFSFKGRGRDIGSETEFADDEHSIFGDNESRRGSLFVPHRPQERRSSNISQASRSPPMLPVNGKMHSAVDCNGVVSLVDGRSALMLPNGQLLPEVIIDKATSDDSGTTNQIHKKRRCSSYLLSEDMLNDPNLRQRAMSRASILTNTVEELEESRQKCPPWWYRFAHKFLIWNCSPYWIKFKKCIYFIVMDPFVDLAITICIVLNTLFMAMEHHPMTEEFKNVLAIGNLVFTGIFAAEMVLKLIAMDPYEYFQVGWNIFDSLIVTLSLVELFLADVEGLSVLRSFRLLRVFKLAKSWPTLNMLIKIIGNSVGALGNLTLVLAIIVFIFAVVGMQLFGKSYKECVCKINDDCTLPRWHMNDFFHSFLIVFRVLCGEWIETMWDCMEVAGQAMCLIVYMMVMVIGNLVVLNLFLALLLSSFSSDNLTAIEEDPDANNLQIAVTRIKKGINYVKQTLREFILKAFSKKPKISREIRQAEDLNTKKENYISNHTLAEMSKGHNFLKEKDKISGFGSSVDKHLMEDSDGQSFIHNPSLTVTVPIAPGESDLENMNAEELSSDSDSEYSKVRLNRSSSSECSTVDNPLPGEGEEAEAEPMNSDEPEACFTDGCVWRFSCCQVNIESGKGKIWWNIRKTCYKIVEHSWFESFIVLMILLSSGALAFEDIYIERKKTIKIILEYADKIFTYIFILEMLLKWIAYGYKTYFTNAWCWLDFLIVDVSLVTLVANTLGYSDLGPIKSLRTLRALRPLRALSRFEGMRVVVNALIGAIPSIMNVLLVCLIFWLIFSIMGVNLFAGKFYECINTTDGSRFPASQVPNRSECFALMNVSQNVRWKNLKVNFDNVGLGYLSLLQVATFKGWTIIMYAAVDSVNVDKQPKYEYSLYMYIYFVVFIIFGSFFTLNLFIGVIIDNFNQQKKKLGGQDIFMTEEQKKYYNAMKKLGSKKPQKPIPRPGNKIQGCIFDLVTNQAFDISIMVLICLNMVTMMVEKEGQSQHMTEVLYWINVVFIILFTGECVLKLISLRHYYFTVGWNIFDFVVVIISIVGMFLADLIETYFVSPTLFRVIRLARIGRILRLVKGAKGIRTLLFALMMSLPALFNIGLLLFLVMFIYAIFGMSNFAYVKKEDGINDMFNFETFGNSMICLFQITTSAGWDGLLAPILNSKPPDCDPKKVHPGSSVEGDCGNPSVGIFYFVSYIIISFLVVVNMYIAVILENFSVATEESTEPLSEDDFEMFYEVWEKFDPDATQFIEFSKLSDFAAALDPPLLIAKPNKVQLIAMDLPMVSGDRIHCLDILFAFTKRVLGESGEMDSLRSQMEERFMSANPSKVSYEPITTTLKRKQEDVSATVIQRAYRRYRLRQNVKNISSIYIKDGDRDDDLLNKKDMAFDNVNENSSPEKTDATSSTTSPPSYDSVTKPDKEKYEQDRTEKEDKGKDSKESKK

**Q.** With `CC[C@H](C)[C@@H]1NC(=O)[C@@H]2CSSC[C@@H]3NC(=O)[C@H](C(C)C)NC(=O)[C@H](CC(C)C)NC(=O)[C@H](CC(N)=O)NC(=O)[C@@H]4CCCN4C(=O)[C@H](CCCNC(=N)N)NC(=O)[C@H](CSSC[C@H](NC(=O)[C@@H](N)CC(=O)O)C(=O)N[C@@H](CC(C)C)C(=O)NCC(=O)N[C@@H](Cc4ccc(C(=O)c5ccccc5)cc4)C(=O)N[C@@H](Cc4ccccc4)C(=O)N[C@@H](CCCNC(=N)N)C(=O)N[C@@H](CCCCN)C(=O)N2)NC(=O)[C@H](CSSC[C@@H](C(=O)N[C@@H](CCCCN)C(=O)N[C@@H](Cc2ccc(O)cc2)C(=O)N[C@H](C(=O)N[C@@H](Cc2ccccc2)C(N)=O)C(C)C)NC(=O)[C@H](Cc2c[nH]c4ccccc24)NC(=O)[C@H](CCCCN)NC(=O)[C@H](Cc2c[nH]cn2)NC(=O)[C@H]([C@@H](C)O)NC(=O)[C@H](CCCNC(=N)N)NC(=O)[C@H](CO)NC3=O)NC(=O)[C@H](CCCCN)NC(=O)[C@H](CC(=O)O)NC(=O)[C@H](CC(N)=O)NC(=O)[C@H](CC(=O)O)NC(=O)[C@@H]2CCCN2C1=O` [compound 619] (H-DCLG[Bpa]FRKCIPDNDKCCRPNLVCSRTHKWCKYVF-NH2; disulfide 2-17, 9-23, 16-30) as the molecule, how does the IC50 (hNav1.3) read?
**A.** 42 nM

**Q.** And the IC50 (hNav1.5)?
**A.** 7700 nM

**Q.** What about the IC50 (hNav1.7) of the same molecule?
**A.** 140 nM

**Q.** Which IC50 (hNav1.3) does the source give for `CC[C@H](C)[C@@H]1NC(=O)[C@@H]2CSSC[C@@H]3NC(=O)[C@H](C(C)C)NC(=O)[C@H](CC(C)C)NC(=O)[C@H](CC(N)=O)NC(=O)[C@@H]4CCCN4C(=O)[C@H](CCCNC(=N)N)NC(=O)[C@H](CSSC[C@H](NC(=O)[C@@H](N)CC(=O)O)C(=O)N[C@@H](CC(C)C)C(=O)NCC(=O)N[C@@H](Cc4ccc(OC)c(OC)c4)C(=O)N[C@@H](Cc4ccccc4)C(=O)N[C@@H](CCCNC(=N)N)C(=O)N[C@@H](CCCCN)C(=O)N2)NC(=O)[C@H](CSSC[C@@H](C(=O)N[C@@H](CCCCN)C(=O)N[C@@H](Cc2ccc(O)cc2)C(=O)N[C@H](C(=O)N[C@@H](Cc2ccccc2)C(N)=O)C(C)C)NC(=O)[C@H](Cc2c[nH]c4ccccc24)NC(=O)[C@H](CCCCN)NC(=O)[C@H](Cc2c[nH]cn2)NC(=O)[C@H]([C@@H](C)O)NC(=O)[C@H](CCCNC(=N)N)NC(=O)[C@H](CO)NC3=O)NC(=O)[C@H](CCCCN)NC(=O)[C@H](CC(=O)O)NC(=O)[C@H](CC(N)=O)NC(=O)[C@H](CC(=O)O)NC(=O)[C@@H]2CCCN2C1=O` [compound 620] (H-DCLG[Phe(3,4-(OMe)2)]FRKCIPDNDKCCRPNLVCSRTHKWCKYVF-NH2; disulfide 2-17, 9-23, 16-30) here?
**A.** 990 nM

**Q.** And the IC50 (hNav1.5)?
**A.** 10400 nM

**Q.** And the IC50 (hNav1.7)?
**A.** 640 nM

**Q.** Which results are given for `CC[C@H](C)[C@@H]1NC(=O)[C@@H]2CSSC[C@@H]3NC(=O)[C@H](C(C)C)NC(=O)[C@H](CC(C)C)NC(=O)[C@H](CC(N)=O)NC(=O)[C@@H]4CCCN4C(=O)[C@H](CCCNC(=N)N)NC(=O)[C@H](CSSC[C@H](NC(=O)[C@@H](N)CC(=O)O)C(=O)N[C@@H](CC(C)C)C(=O)NCC(=O)N[C@@H](Cc4ccc(Cl)c(Cl)c4)C(=O)N[C@@H](Cc4ccccc4)C(=O)N[C@@H](CCCNC(=N)N)C(=O)N[C@@H](CCCCN)C(=O)N2)NC(=O)[C@H](CSSC[C@@H](C(=O)N[C@@H](CCCCN)C(=O)N[C@@H](Cc2ccc(O)cc2)C(=O)N[C@H](C(=O)N[C@@H](Cc2ccccc2)C(N)=O)C(C)C)NC(=O)[C@H](Cc2c[nH]c4ccccc24)NC(=O)[C@H](CCCCN)NC(=O)[C@H](Cc2c[nH]cn2)NC(=O)[C@H]([C@@H](C)O)NC(=O)[C@H](CCCNC(=N)N)NC(=O)[C@H](CO)NC3=O)NC(=O)[C@H](CCCCN)NC(=O)[C@H](CC(=O)O)NC(=O)[C@H](CC(N)=O)NC(=O)[C@H](CC(=O)O)NC(=O)[C@@H]2CCCN2C1=O` [compound 621] (H-DCLG[Phe(3,4-Cl2)]FRKCIPDNDKCCRPNLVCSRTHKWCKYVF-NH2; disulfide 2-17, 9-23, 16-30)?
**A.** IC50 (hNav1.3): 5 nM; IC50 (hNav1.5): 4100 nM; IC50 (hNav1.7): 48 nM

**Q.** For `CC[C@H](C)[C@@H]1NC(=O)[C@@H]2CSSC[C@@H]3NC(=O)[C@H](C(C)C)NC(=O)[C@H](CC(C)C)NC(=O)[C@H](CC(N)=O)NC(=O)[C@@H]4CCCN4C(=O)[C@H](CCCNC(=N)N)NC(=O)[C@H](CSSC[C@H](NC(=O)[C@@H](N)CC(=O)O)C(=O)N[C@@H](CC(C)C)C(=O)NCC(=O)N[C@@H](Cc4ccc(I)cc4)C(=O)N[C@@H](Cc4ccccc4)C(=O)N[C@@H](CCCNC(=N)N)C(=O)N[C@@H](CCCCN)C(=O)N2)NC(=O)[C@H](CSSC[C@@H](C(=O)N[C@@H](CCCCN)C(=O)N[C@@H](Cc2ccc(O)cc2)C(=O)N[C@H](C(=O)N[C@@H](Cc2ccccc2)C(N)=O)C(C)C)NC(=O)[C@H](Cc2c[nH]c4ccccc24)NC(=O)[C@H](CCCCN)NC(=O)[C@H](Cc2c[nH]cn2)NC(=O)[C@H]([C@@H](C)O)NC(=O)[C@H](CCCNC(=N)N)NC(=O)[C@H](CO)NC3=O)NC(=O)[C@H](CCCCN)NC(=O)[C@H](CC(=O)O)NC(=O)[C@H](CC(N)=O)NC(=O)[C@H](CC(=O)O)NC(=O)[C@@H]2CCCN2C1=O` [compound 622] (H-DCLG[Phe(4-I)]FRKCIPDNDKCCRPNLVCSRTHKWCKYVF-NH2; disulfide 2-17, 9-23, 16-30), which IC50 (hNav1.3) is on record?
**A.** 21000 nM

**Q.** And the IC50 (hNav1.5)?
**A.** 12900 nM

**Q.** What about the IC50 (hNav1.7) of the same molecule?
**A.** 12300 nM

**Q.** For `CC[C@H](C)[C@@H]1NC(=O)[C@@H]2CSSC[C@@H]3NC(=O)[C@H](C(C)C)NC(=O)[C@H](CC(C)C)NC(=O)[C@H](CC(N)=O)NC(=O)[C@@H]4CCCN4C(=O)[C@H](CCCNC(=N)N)NC(=O)[C@H](CSSC[C@H](NC(=O)[C@@H](N)CC(=O)O)C(=O)N[C@@H](CC(C)C)C(=O)NCC(=O)N[C@@H](Cc4ccc(C(F)(F)F)cc4)C(=O)N[C@@H](Cc4ccccc4)C(=O)N[C@@H](CCCNC(=N)N)C(=O)N[C@@H](CCCCN)C(=O)N2)NC(=O)[C@H](CSSC[C@@H](C(=O)N[C@@H](CCCCN)C(=O)N[C@@H](Cc2ccc(O)cc2)C(=O)N[C@H](C(=O)N[C@@H](Cc2ccccc2)C(N)=O)C(C)C)NC(=O)[C@H](Cc2c[nH]c4ccccc24)NC(=O)[C@H](CCCCN)NC(=O)[C@H](Cc2c[nH]cn2)NC(=O)[C@H]([C@@H](C)O)NC(=O)[C@H](CCCNC(=N)N)NC(=O)[C@H](CO)NC3=O)NC(=O)[C@H](CCCCN)NC(=O)[C@H](CC(=O)O)NC(=O)[C@H](CC(N)=O)NC(=O)[C@H](CC(=O)O)NC(=O)[C@@H]2CCCN2C1=O` [compound 623] (H-DCLG[Phe(4-CF3)]FRKCIPDNDKCCRPNLVCSRTHKWCKYVF-NH2; disulfide 2-17, 9-23, 16-30), which IC50 (hNav1.3) is on record?
**A.** 13 nM

**Q.** What about the IC50 (hNav1.5) of the same molecule?
**A.** 7100 nM

**Q.** And the IC50 (hNav1.7)?
**A.** 96 nM

**Q.** Which results are given for `CC[C@H](C)[C@@H]1NC(=O)[C@@H]2CSSC[C@@H]3NC(=O)[C@H](C(C)C)NC(=O)[C@H](CC(C)C)NC(=O)[C@H](CC(N)=O)NC(=O)[C@@H]4CCCN4C(=O)[C@H](CCCNC(=N)N)NC(=O)[C@H](CSSC[C@H](NC(=O)[C@@H](N)CC(=O)O)C(=O)N[C@@H](CC(C)C)C(=O)NCC(=O)N[C@@H](Cc4ccc(F)cc4)C(=O)N[C@@H](Cc4ccccc4)C(=O)N[C@@H](CCCNC(=N)N)C(=O)N[C@@H](CCCCN)C(=O)N2)NC(=O)[C@H](CSSC[C@@H](C(=O)N[C@@H](CCCCN)C(=O)N[C@@H](Cc2ccc(O)cc2)C(=O)N[C@H](C(=O)N[C@@H](Cc2ccccc2)C(N)=O)C(C)C)NC(=O)[C@H](Cc2c[nH]c4ccccc24)NC(=O)[C@H](CCCCN)NC(=O)[C@H](Cc2c[nH]cn2)NC(=O)[C@H]([C@@H](C)O)NC(=O)[C@H](CCCNC(=N)N)NC(=O)[C@H](CO)NC3=O)NC(=O)[C@H](CCCCN)NC(=O)[C@H](CC(=O)O)NC(=O)[C@H](CC(N)=O)NC(=O)[C@H](CC(=O)O)NC(=O)[C@@H]2CCCN2C1=O` [compound 624] (H-DCLG[Phe(4-F)]FRKCIPDNDKCCRPNLVCSRTHKWCKYVF-NH2; disulfide 2-17, 9-23, 16-30)?
**A.** IC50 (hNav1.3): 20 nM; IC50 (hNav1.5): 11700 nM; IC50 (hNav1.7): 60 nM

**Q.** Which results are given for `CC[C@H](C)[C@@H]1NC(=O)[C@@H]2CSSC[C@@H]3NC(=O)[C@H](C(C)C)NC(=O)[C@H](CC(C)C)NC(=O)[C@H](CC(N)=O)NC(=O)[C@@H]4CCCN4C(=O)[C@H](CCCNC(=N)N)NC(=O)[C@H](CSSC[C@H](NC(=O)[C@@H](N)CC(=O)O)C(=O)N[C@@H](CC(C)C)C(=O)NCC(=O)N[C@@H](Cc4ccc(C)cc4)C(=O)N[C@@H](Cc4ccccc4)C(=O)N[C@@H](CCCNC(=N)N)C(=O)N[C@@H](CCCCN)C(=O)N2)NC(=O)[C@H](CSSC[C@@H](C(=O)N[C@@H](CCCCN)C(=O)N[C@@H](Cc2ccc(O)cc2)C(=O)N[C@H](C(=O)N[C@@H](Cc2ccccc2)C(N)=O)C(C)C)NC(=O)[C@H](Cc2c[nH]c4ccccc24)NC(=O)[C@H](CCCCN)NC(=O)[C@H](Cc2c[nH]cn2)NC(=O)[C@H]([C@@H](C)O)NC(=O)[C@H](CCCNC(=N)N)NC(=O)[C@H](CO)NC3=O)NC(=O)[C@H](CCCCN)NC(=O)[C@H](CC(=O)O)NC(=O)[C@H](CC(N)=O)NC(=O)[C@H](CC(=O)O)NC(=O)[C@@H]2CCCN2C1=O` [compound 625] (H-DCLG[Phe(4-Me)]FRKCIPDNDKCCRPNLVCSRTHKWCKYVF-NH2; disulfide 2-17, 9-23, 16-30)?
**A.** IC50 (hNav1.3): 51 nM; IC50 (hNav1.5): 6500 nM; IC50 (hNav1.7): 63 nM

**Q.** With `CC[C@H](C)[C@@H]1NC(=O)[C@@H]2CSSC[C@@H]3NC(=O)[C@H](C(C)C)NC(=O)[C@H](CC(C)C)NC(=O)[C@H](CC(N)=O)NC(=O)[C@@H]4CCCN4C(=O)[C@H](CCCNC(=N)N)NC(=O)[C@H](CSSC[C@H](NC(=O)[C@@H](N)CC(=O)O)C(=O)N[C@@H](CC(C)C)C(=O)NCC(=O)N[C@@H](Cc4ccc(C(C)(C)C)cc4)C(=O)N[C@@H](Cc4ccccc4)C(=O)N[C@@H](CCCNC(=N)N)C(=O)N[C@@H](CCCCN)C(=O)N2)NC(=O)[C@H](CSSC[C@@H](C(=O)N[C@@H](CCCCN)C(=O)N[C@@H](Cc2ccc(O)cc2)C(=O)N[C@H](C(=O)N[C@@H](Cc2ccccc2)C(N)=O)C(C)C)NC(=O)[C@H](Cc2c[nH]c4ccccc24)NC(=O)[C@H](CCCCN)NC(=O)[C@H](Cc2c[nH]cn2)NC(=O)[C@H]([C@@H](C)O)NC(=O)[C@H](CCCNC(=N)N)NC(=O)[C@H](CO)NC3=O)NC(=O)[C@H](CCCCN)NC(=O)[C@H](CC(=O)O)NC(=O)[C@H](CC(N)=O)NC(=O)[C@H](CC(=O)O)NC(=O)[C@@H]2CCCN2C1=O` [compound 626] (H-DCLG[Phe(4-tBu)]FRKCIPDNDKCCRPNLVCSRTHKWCKYVF-NH2; disulfide 2-17, 9-23, 16-30) as the molecule, how does the IC50 (hNav1.3) read?
**A.** 21 nM

**Q.** And the IC50 (hNav1.5)?
**A.** 4700 nM

**Q.** And the IC50 (hNav1.7)?
**A.** 52 nM
